Source: the SangsterLogP compilation

experiment: method code SF-AS, from DOI: 10.1080/10826079608005496

Q: Which logP does the source give for `CC(C)OC(=O)CSc1ccc(Cl)cc1[N+](=O)[O-]` here?
A: Its logP is 3.14.

Q: For `CC(C)OC(=O)CS(=O)(=O)c1ccc(Cl)cc1[N+](=O)[O-]`, which logP is on record?
A: Its logP is 2.24.

Q: For `CC(C)OC(=O)CSc1ccc([N+](=O)[O-])cc1Cl`, which logP is on record?
A: Its logP is 3.29.

Q: For `CC(C)OC(=O)CS(=O)(=O)c1ccccc1[N+](=O)[O-]`, which logP is on record?
A: Its logP is 1.6.

Q: Which logP does the source give for `CC(C)OC(=O)CSc1ccc([N+](=O)[O-])cc1` here?
A: The logP was 2.66.

Q: Which logP does the source give for `COC(=O)CS(=O)c1ccc([N+](=O)[O-])cc1[N+](=O)[O-]` (stereo not drawn) here?
A: The logP was 0.79.

Q: For `CC(C)OC(=O)CS(=O)c1ccc([N+](=O)[O-])cc1Cl` (stereo not drawn), which logP is on record?
A: The logP was 2.04.

Q: Which logP does the source give for `COC(=O)CS(=O)(=O)c1ccc(Cl)cc1[N+](=O)[O-]` here?
A: The logP was 1.6.

Q: With `CC(C)OC(=O)CS(=O)(=O)c1ccc([N+](=O)[O-])cc1` as the molecule, how does the logP read?
A: The logP was 1.79.

Q: For `COC(=O)CSc1ccc(Cl)cc1[N+](=O)[O-]`, which logP is on record?
A: The logP was 2.5.

Q: With `COC(=O)CSc1ccc([N+](=O)[O-])cc1Cl` as the molecule, how does the logP read?
A: The logP was 2.66.

Q: Which logP does the source give for `CC(C)OC(=O)CS(=O)(=O)c1ccc([N+](=O)[O-])cc1Cl` here?
A: The logP was 2.12.

Q: Which logP does the source give for `CC(C)OC(=O)CSc1ccc([N+](=O)[O-])cc1[N+](=O)[O-]` here?
A: The logP was 2.72.
